US20150209794A1, “MODIFIED MICRONIZATION DEVICE AND METHOD THEREOF” (OEKOMINERAL AG, priority 2014, published 2015)

Assay: Amorphous content / crystalline disorder by isothermal calorimetry (IC TAM 3)
Format: physicochemical
Settings: ursolic acid, five repeated micronization procedures
Protocol: 1 kg of each sample of ursolic acid (98% purity, Sigma Aldrich) of an average particle size of […] was micronized five times in devices having different hitting elements. The discs were cooled through a feeder opening with liquid nitrogen spraying to avoid overheating of the heat-sensitive substance.
The micronized samples were analyzed for particle size (Malvern MasterSizer 2000), while the extent of crystalline disorder of particles was quantified with isothermal calorimetry (IC TAM 3, TA instruments, USA). Data was recorded with proprietary software Digitam 4.2.

With C[C@H]1[C@H](C)CC[C@]2(C(=O)O)CC[C@]3(C)C(=CC[C@@H]4[C@@]5(C)CC[C@H](O)C(C)(C)[C@@H]5CC[C@]43C)[C@H]12 [ursolic acid] the “Amorphous Content” value (MICRONIZATION-1) was 3.68 %, w/w, the “Amorphous Content” value (MICRONIZATION-2) was 6.12 %, w/w and the “Amorphous Content” value (MICRONIZATION-3) was 19.23 %, w/w.
